Entries after “also recorded” stand apart in the source; their conditions may differ.
Legend:
[1] = test system: apo E secretion from RPE cells; test: Apo E secretion into basal media of RPE cells, western blot; assay type: cell-based, human; conditions: 36 hour incubation, both chambers, T3 10^-7 M, 22 (R) hydroxycholesterol 2.5x10^-6 M, cis retinoic acid 10^-7 M (10^-6 M elsewhere in the source), FIG. 6
Description: Primary cultures of normal human RPE cells from passages 5 to 10 were used for the experiments described. RPE cells were grown to confluence on laminin-coated 6 well Transwell tissue culture plates (Costar) with DMEM-H21 containing 10% fetal bovine serum, 2 mM glutamine, 50 μg/ml gentamicin and 2.5 mg/ml fungizone in the top and bottom chambers. […] Cells were grown for at least 1 week at confluence prior to drug treatment. Cells to be treated with drugs were incubated in serum free DMEM-H21 prior to drug addition. Drug treatments were in serum free DMEM-H21 with or without 10^−7 M thyroid hormone (T3), 2.5×10^−6 M 22 (R) hydroxycholesterol, or 10^−7 M cis retinoic acid in both chambers for 36 hours.
Total protein content was determined by a modified Lowry assay (Bio-Rad DC kit, Richmond, Calif.). Concentrated media (50 μg protein) was made to Start Buffer (0.025 M NaCl, 0.010 M tris (pH 8.5), 5 mM MnCl2) and adsorbed onto a 0.1 ml column containing Heparin-Sepharose CL-4B (Pharmacia, Uppsala, Sweden). Following a 2 ml wash in Start Buffer, the apo E containing bound fraction was eluted with 0.5M NaCl in Start buffer. The eluate was concentrated to 20 μl and buffer-exchanged to SalEN by centrifugal ultrafiltration (Biomax, 5k MCO, Millipore, Bedford, Mass.). Apo E was resolved by tris-tricine buffered SDS-PAGE (5-25% linear acrylamide gradient) and proteins electrophoetically transferred (55V, 18 h) to nitrocelluose membrane filters (Schleicher and Shuell, Keen, N.H.). Membranes were blocked with 10% bovine serum albumin at room temperature and probed with 1% goat anti-human apo E antiserum (18 h, 3° C.) prepared in 0.15% NaCl, 1 mM EDTA (pH 7.4), 0.1% Triton X-100 (SalET). The primary-bound anti-apo E antibodies were detected colorimetrically with horseradish peroxidase conjugated rabbit anti-goat Ig (H+L) and NiCl2-enhanced diaminobenzine staining. Stained bands were compared densitometrically from the digitized scanned image (NIH Image, v.1.62).
In order to distinguish apical (A) from basally (B) secreted apo E, RPE cells were cultured on laminin-coated Transwell plates. […] Total protein and apo E-specific protein concentrations were measured from media pooled and concentrated from 3-6 replicate wells. To assess apo E-specific secretion, apo E was purified from conditioned media by heparin-sepharose affinity chromatography and visualized by western blotting.
Since RPE cells express lxr α as well as thyroid hormone receptors (TRs) and retinoid-X-receptors (RXRs), the effect of 10^−7 M T3, 2.5×10^−6 M 22 (R) hydroxycholesterol (HC) (an lxr α agonist), or 10^−7 M cis retinoic acid (cRA) (an RXR agonist) on apo E secretion from RPE cells was tested. FIG. 6 illustrates the same experimental procedure as described above, but with basal and apical media both containing the following compounds for a 36 hour incubation: T3 (10^−7) M (T); 9 cis-RA (10^−6) M (RA); and 22 (R) hydroxycholesterol 2.5 (10^−6) M (HC).
Control (C) refers to no drug addition; T refers to 10^−7 M T3; RA refers to 10^−7 M cis retinoic acid; and HC refers to 2.5×10^−6 M 22(R) hydroxycholesterol. Basal media from 3 wells were combined, concentrated, and apo E was detected by western blotting.

cultured human RPE cells = test: 14C-DHA labeled POS efflux into basal media after drug treatment; assay type: cell-based; conditions: 36 hours; 10^-7 M T3, 2.5x10^-5 M 22 (R) hydroxycholesterol or 10^-7 M cis retinoic acid; basal medium 1 mg/ml HDL; FIG. 10
Description: Bovine outer photoreceptor outer segments (POS) were labeled by incubating […] Coenzyme A, ATP, Mg^2+, and [^14C]-DHA. Cells grown on laminin coated Transwell plates were incubated with 12 μg/ml labeled POS in the apical chamber for 36 hours in medium containing 10% lipoprotein deficient fetal bovine serum. The basal medium was subjected to scintillation counting to determine the amount of [^14C] labeled lipids transported through the RPE cells.
This experiment determines whether compound administration can upregulate efflux of labeled POS residues to HDL, particularly by showing regulation of ^14C-DHA labeled POS efflux into basal media. An assay similar to that described in Example 4 is utilized; however, in this Example the cells were treated with T3, 9 cis-retinoic acid, and 22 (R) hydroxycholesterol in the concentrations described above for 36 hours. Total radioactivity (cpm) in the absence of HDL purification was determined by liquid scintillation counting of the basal media.
Specifically, cells were grown for 1 to 2 weeks at confluence on Transwell plates. ^14C-labeled POS […] were added to the apical medium. The apical and basal medium comprised either 10^−7 M T3, 2.5×10^−5 M 22 (R) hydroxycholesterol, or 10^−7 M cis retinoic acid. The basal medium contained 1 mg/ml HDL. After 36 hours the basal medium was collected and ^14C counts were determined by scintillation counting.

[2] = test system: apo E secretion from RPE cells; test: Apo E secretion from RPE cells, ELISA; assay type: cell-based, human; conditions: 36 hours, serum free DMEM; 10^-7 M T3; 2.5x10^-6 M 22(R) hydroxycholesterol; 10^-7 M cis retinoic acid; alone and in combination; FIG. 14
Description: RPE cells were treated for 36 hours on Transwell® plates with serum free DMEM +/− the drugs indicated. Control refers to no drug addition, T refers to 10^−7 M T3; HC refers to 2.5×10^−6 M 22(R) hydroxycholesterol; RA refers to 10^−7 M cis retinoic acid. N=6, * indicates p<0.05 (two-tailed t-test) compared to Control.
Media samples treated with 0.1% Tween-20 containing 1% bovine serum albumin were incubated (37° C., 4 h) in 96-well plates previously coated with apo E-affinity purified goat anti-apo E antibody. Apo E was detected using a secondary antibody-peroxidase conjugate and 3.3.5.5′-[…] (TMB) substrate. Optical density was measured at 450 nm. The assay was calibrated with purified plasma apo E. The dynamic range of the assay was 1-40 ng/ml apo E with a CV<5%.

[3] = test system: Human retinal pigment epithelial cells; test: 14C-labeled lipid efflux from RPE cells with HDL, apoA-I or apoA-I vesicles; assay type: cell-based; conditions: basal chamber, 36 hours, vs Control; FIG. 19
Description: The present inventors have created liposomes comprising apoA-I (artificial preβ1 HDL). Artificial discoidal apoA-I liposomes comprising purified human plasma apoAI, the saturated phospholipid dimyristoyl-L-α-phoshatidylcholine (DMPC) and cholesterol were constructed by the sodium cholate dialysis method. Liposomes were prepared using a molar ratio of approximately 1/5/95, apoA-I/free cholesterol/DMPC. Human retinal pigment epithelial cells grown on 6 well laminin coated Transwell® plates were fed ^14C-docosahexaenoic acid labeled photoreceptor outer segments in medium containing 5% lipoprotein free fetal bovine serum for 36 hours (apical chamber). Basal chambers contained serum free medium and either no human high density lipoprotein (HDL) (Control), 100 μg/ml of human HDL, pure human apoA-I, or human apoA-I vesicles. An aliquot of the basal medium was subjected to liquid scintillation counting. Wells were treated in triplicate. HDL stimulated ^14C-labeled lipid efflux by about 60%.

Compound | basal Apo E expression/secretion (Western blot of basal media) [1] | basal Apo E expression/secretion (Western blot of basal media) ([1]; listed as HC) | transport of 14C-labeled POS to the basal medium (cultured human RPE cells) | apo E secretion (ELISA) [2] | basal Apo E expression/secretion (Western blot of basal media) ([1]; listed as 9 cis-RA) | basal Apo E expression/secretion (Western blot of basal media) ([1]; listed as RA) | stimulation of 14C-labeled lipid efflux (in words) [3]
CC(C)CC[C@@H](O)[C@@H](C)[C@H]1CC[C@H]2[C@@H]3CC=C4C[C@@H](O)CC[C@]4(C)[C@H]3CC[C@]12C [22 (R) hydroxycholesterol] | increased basal expression of Apo E | stimulate basal apo E secretion | increased transport of ^14C-labeled POS to the basal medium | upregulate apo E secretion |  |  | 
N[C@@H](Cc1cc(I)c(Oc2ccc(O)c(I)c2)c(I)c1)C(=O)O [T3, 3,5,3′-L-triiodothyronine] | increased basal expression of Apo E; also recorded: stimulate basal apo E secretion |  | increased transport of ^14C-labeled POS to the basal medium | upregulate apo E secretion |  |  | 
CC1=C(/C=C/C(C)=C\C=C\C(C)=C\C(=O)O)C(C)(C)CCC1 [cis retinoic acid, 9 cis-retinoic acid] |  |  | increased transport of ^14C-labeled POS to the basal medium | upregulate apo E secretion | increased basal expression of Apo E | stimulate basal apo E secretion | 
ApoA-I: pure human apoA-I, purified from human plasma; major lipoprotein component of HDL |  |  |  |  |  |  | appeared to stimulate
